# Source: patent publication EP0079167A1, “A carbapenem compound, preparation and use” (BEECHAM GROUP PLC, priority 1981, dated 1983)
# Where two headings read alike, the source gives them in different places.
# Columns and labels:
# [1] = system: Klebsiella aerogenes; assay: Antibacterial activity in vitro (MIC); assay type: cell-based
# [2] = system: Escherichia coli; assay: Antibacterial activity in vitro (MIC); assay type: cell-based
# [3] = system: E. coli E96R+; assay: Antibacterial activity in vivo against experimental mouse infection; details: Escherichia coli, read-out: CD50
# Protocol: (§1) CD50 mg/kg (total dose) - Compounds dosed at 1 and 5 hours past infection.
# [4] = system: Staph. aureus Smith; assay: as above; details: Staphylococcus aureus; mouse infection with Staph. aureus Smith; total dose; dosed at 1 and 5 hours past infection; read-out: CD50 (the source's name)
# Protocol: as §1
# [5] = Tissue stability in mouse kidney homogenate (HPLC); assay type: in vitro ADME; details: 37°C, stability relative to MM13902 taken as standard (1.0), values >1.0 = fold increase in stability
# Protocol: (§2) A preparation of 2% mouse kidney homogenate was mixed with equal volumes of a 200 µg/ml solution of the antibiotic to be tested. The stability of the antibiotic at 37 °C was studied by removal of aliquots and subjecting them to a high pressure liquid chromatographic analysis. The values are given in figures relative to that obtained for MM13902 of U.K. Patent No. 1489235. The values are given in figures relative to that obtained for MM13902 which is taken as standard (1.0). Values greater than 1.0 reflect the fold increase in stability relative to MM13902.
# [6] = system: Staphylococcus aureus; assay: Antibacterial activity in vitro (MIC); assay type: cell-based
# [7] = Tissue stability in human kidney (HPLC); assay type: in vitro ADME; details: stability relative to MM13902 taken as standard (1.0), values >1.0 = fold increase in stability
# Protocol: as §2
# [8] = Klebsiella aerogenes VA2R+ (printed Va2R+ for Compound B)
# [9] = Escherichia coli Ba78R+, read-out: MIC
# [10] = Escherichia coli JT4R+, read-out: MIC
smiles,measurement,setting,value
C[C@H](O)[C@@H]1C(=O)N2C(C(=O)O)=C(S/C=C\C(=O)OCCN)C[C@H]12 [Compound A],MIC,[1]; Klebsiella aerogenes 185R+,3.1 µg/mL
same,MIC,[1]; Klebsiella aerogenes 192R+,6.2 µg/mL
same,MIC,[1]; Klebsiella aerogenes Ba95R+,6.2 µg/mL
same,MIC,[1]; [8],25 µg/mL
same,MIC,[2],0.8 µg/mL
same,MIC,[2]; [9],1.6 µg/mL
same,MIC,[2]; [10],6.2 µg/mL
same,MIC,"[2]; Escherichia coli JT20R+, read-out: MIC",6.2 µg/mL
same,ED50,[3],66 mg/kg
same,ED50,[4],4.5 mg/kg
same,Tissue Stability Values,[5],1.3
same,MIC,"[6]; ATCC25923, Staphylococcus aureus ATCC 25923",0.1 µg/mL
same,MIC,[6]; Staphylococcus aureus 68/8484,0.2 µg/mL
same,MIC,[6]; Staphylococcus aureus 150+,0.2 µg/mL
same,MIC,[6]; Staphylococcus aureus MB9+,0.2 µg/mL
same,MIC,[6]; Staphylococcus aureus N36MR,0.4 µg/mL
same,MIC,[6]; Staphylococcus aureus N71MR,0.8 µg/mL
same,MIC,[6]; Staphylococcus aureus Smith,0.2 µg/mL
same,MIC,[6]; Staphylococcus aureus T71+,0.1 µg/mL
same,MIC,[6]; Staphylococcus aureus T100,0.2 µg/mL
same,Tissue Stability Values,[7],1.2
"C[C@@H](O)[C@H]1C(=O)N2C(C(=O)O)=C(S/C=C\C(=O)OCCN)C[C@H]12 [Compound B, (5R.6S)-3-[(Z)-2-(2-aminoethyloxycarbonyl)ethenylthio]-6-[(R)-1-hydroxyethyl]-7-oxo-1-azabicyclo[3.2.0]hept-2-ene-2-carboxylic acid]",MIC,[1]; Klebsiella aerogenes Ba95R+,0.4 µg/mL
same,MIC,[1]; Klebsiella aerogenes Du185R,0.2 µg/mL
same,MIC,[1]; Klebsiella aerogenes Du192R,0.2 µg/mL
same,MIC,[1]; [8],0.4 µg/mL
same,MIC,[2]; [9],0.1 µg/mL
same,MIC,[2]; [10],0.1 µg/mL
same,MIC,"[2]; Escherichia coli JT56R+, read-out: MIC",0.2 µg/mL
same,MIC,"[2]; Escherichia coli JT177R, read-out: MIC",0.2 µg/mL
same,ED50,[3],13 mg/kg
same,ED50,[4],< 0.4 mg/kg
same,Tissue Stability Values,[5],2.4
same,MIC,[6]; Staphylococcus aureus MANSTK 33269,0.4 µg/mL
same,MIC,[6]; Staphylococcus aureus T2p-,0.1 µg/mL
same,MIC,[6]; Staphylococcus aureus T97p+,0.1 µg/mL
same,MIC,[6]; Staphylococcus aureus T100p-,0.02 µg/mL
same,MIC,[6]; Staphylococcus aureus T118p+,0.05 µg/mL
same,MIC,[6]; Staphylococcus aureus T120p-,0.02 µg/mL
same,Tissue Stability Values,[7],2.2
C[C@H](O)[C@H]1C(=O)N2C(C(=O)O)=C(S/C=C\C(=O)OCCN)C[C@H]12 [Compound C],MIC,[1]; Klebsiella aerogenes A,3.1 µg/mL
same,MIC,"[2]; Escherichia coli JT39, read-out: MIC",3.1 µg/mL
same,MIC,[6]; Staphylococcus aureus 1517,6.2 µg/mL
same,MIC,[6]; Staphylococcus aureus Russell,0.4 µg/mL
CC(=O)N/C=C/SC1=C(C(=O)O)N2C(=O)[C@@H]([C@H](C)OS(=O)(=O)O)[C@H]2C1 [MM13902],Tissue Stability Values,[5],1.0
same,Tissue Stability Values,[7],1.0
